Test results reported in patent US8436004B2, “Bicycloaniline derivative” (MSD K.K., priority 2007, dated 2013).
Where a name gives a salt, the structure may show the parent alone.

Columns and labels:
Wee1 kinase = target: T1, Wee1 kinase (Homo sapiens, UniProt P30291); assay: Wee1 kinase-inhibitory effect (33P-ATP, Poly(Lys,Tyr) substrate, filter assay); format: biochemical; conditions: 10 μM ATP, 30° C., 30 minutes
T1 construct: made in house; host or cells: Sf9 insect cells (recombinant baculovirus)
T1 sequence (P30291 whole entry): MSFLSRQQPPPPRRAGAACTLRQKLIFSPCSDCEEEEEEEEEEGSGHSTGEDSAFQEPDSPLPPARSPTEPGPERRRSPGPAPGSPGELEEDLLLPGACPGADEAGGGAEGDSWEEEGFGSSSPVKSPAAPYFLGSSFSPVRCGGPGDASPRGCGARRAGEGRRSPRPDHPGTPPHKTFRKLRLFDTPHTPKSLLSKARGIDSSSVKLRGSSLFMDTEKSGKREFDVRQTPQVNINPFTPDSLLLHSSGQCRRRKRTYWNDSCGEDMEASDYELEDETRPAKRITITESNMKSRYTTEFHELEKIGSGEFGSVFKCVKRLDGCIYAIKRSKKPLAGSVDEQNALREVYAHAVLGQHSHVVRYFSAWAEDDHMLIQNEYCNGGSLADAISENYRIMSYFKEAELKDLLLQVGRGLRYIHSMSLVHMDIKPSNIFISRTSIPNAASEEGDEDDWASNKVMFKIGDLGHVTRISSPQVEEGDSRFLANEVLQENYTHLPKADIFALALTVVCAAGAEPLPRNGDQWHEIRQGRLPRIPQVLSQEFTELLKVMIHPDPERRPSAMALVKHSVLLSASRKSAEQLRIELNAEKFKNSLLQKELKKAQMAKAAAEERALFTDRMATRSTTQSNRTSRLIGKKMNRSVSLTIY
Description: Pharmacological Test 1 (Wee1 Kinase-Inhibitory Effect)
(1) Purification of Wee1 Kinase:
A cDNA of Wee1 kinase with […] (GST) fused at the amino terminal thereof was inserted into a baculovirus expression vector to construct a recombinant baculovirus, with which cells of an insect cell line Sf9 were infected for high expression therein. The infected cells were recovered and solubilized, and then the GST-tagged Wee1 kinase protein was adsorbed by a glutathion column, and eluted from the column with glutathion, and the active fraction was desalted in a desalting column to give a purified enzyme.
(2) Determination of Wee1 Kinase Activity:
In determination of the Wee1 kinase activity, a synthetic peptide, Poly(Lys,Tyr) Hydrobromide (Lys:Tyr (4:1)) bought from Sigma was used as the substrate.
The amount of the reaction liquid was 21.1 μL; and the composition of the reaction buffer was 50 mM Tris-HCl buffer (pH 7.4)/10 mM magnesium chloride/1 mM dithiothreitol. The purified Wee1 kinase, 2.5 μg of the substrate peptide, 10 μM of non-labeled adenosine triphosphate (ATP) and 1 μCi of [γ-^33P]-labeled ATP (2500 Ci/mmol or more) were added to it, and reacted at 30° C. for 30 minutes. Next, 10 μL of 350 mM phosphate buffer was added to the reaction system to stop the reaction. The substrate peptide was adsorbed by a P81 paper filter 96-well plate, then washed a few times with 130 mM phosphate buffer, and its radioactivity was counted with a liquid scintillation counter. The [γ-^33P]-labeled ATP was bought from Amersham Bioscience.
To add the test compound to the reaction system, the compound was diluted with dimethylsulfoxide (DMSO) to prepare a series of dilutions. 1.1 μL of each dilution was added to the reaction system. As a control, 1.1 μL of DMSO was added to the reaction system.

[1] = system: Cdc2 (Cdk1) tyrosine 15-phosphorylation in WiDr cells; assay: Cdc2 (Cdk1) tyrosine 15-phosphorylation-inhibitory effect in gemcitabine-treated WiDr cells (ELISA); format: cell-based; conditions: Homo sapiens, gemcitabine 100 nM 24 hours, then test compound + nocodazole 8 hours, read-out: Cdc2-Y15 Phosphorylation-Inhibitory Effect (WiDr, + gemcitabine) (EC50)
Description: Pharmacological Test 2 (Method of Determining Drug Potency with Cells (Cdc2 (Cdk1) Tyrosine 15-Phosphorylation-Inhibitory Effect))
Fetal bovine serum (FBS) was obtained from Morgate; media RPMI1640 and DMEM were from Invitrogen; camptothecin was from Sigma; gemcitabine was from Nippon Eli Lilly; nocodazole and protease inhibitor cocktail were from Sigma; rabbit anti-Cdc2 antibody and mouse anti-Cdc2 antibody were from Santa Cruz Biotechnology; rabbit anti-tyrosine 15-phosphorylated Cdc2 antibody and horseradish peroxidase-labeled anti-mouse IgG antibody were from Cell Signaling Technology; sure blue reserve TMB peroxidase substrate was from Kirkegaard and Perry Laboratories.
Human non-small cell lung cancer cells (NCI-H1299) and human colon cancer cells (WiDr) were obtained from American Type Culture Collection (ATCC).
In the method of using WiDr cells, the cells were suspended in a medium of 10% FBS-added DMEM, and the cell suspension was applied to a 96-well Nunclondelta-processed plastic plate in an amount of 2000 cells/100 μL/well, in which the cells were incubated overnight in 5% CO2-95% air at 37° C. […] Cdc2 was determined through ELISA as follows: A rabbit anti-Cdc2 antibody solution, which had been diluted 200-fold with 50 mM carbonate-bicarbonate buffer (pH 9.6), was applied to a 96-well maxisorp plastic plate in an amount of 50 μL/well, and statically kept overnight at 4° C. so as to fix the antibody on the plate. […] Then, 1 M hydrochloric acid was added to it in an amount of 100 μL/well to stop the reaction, and this was analyzed through colorimetry. Tyrosine 15-phosphorylated Cdc2 was determined through ELISA as follows: A rabbit anti-tyrosine 15-phosphorylated Cdc2 antibody solution, which had been diluted 100-fold with 50 mM carbonate-bicarbonate buffer (pH 9.6), was applied to a 96-well maxisorp plastic plate in an amount of 50 μL/well, and statically kept overnight at 4° C. so as to fix the antibody on the plate. […]

| Compound | IC50 (Wee1 kinase) [nM] | EC50 [1] [nM] |
| --- | --- | --- |
| CN1Cc2cc(Nc3ncc4c(=N)n(-c5c(Cl)cccc5Cl)c(=O)[nH]c4n3)ccc2C2(CC2)C1 [Example 1, 3-(2,6-dichlorophenyl)-4-imino-7-[(2′-methyl-2′,3′-dihydro-1′H-spiro[cyclopropane-1,4′-isoquinolin]-7′-yl)amino]-3,4-dihydropyrimido[4,5-d]pyrimidin-2(1H)-one dihydrochloride] | 5 | 21 |
| CN1Cc2cc(Nc3ncc4c(=N)n(-c5c(Cl)cccc5Cl)c(=O)[nH]c4n3)ccc2C(C)(C)C1 [Example 2, 3-(2,6-dichlorophenyl)-4-imino-7-{[2,4,4-trimethyl-1,2,3,4-tetrahydroisoquinolin-7-yl]amino}-3,4-dihydropyrimido[4,5-d]pyrimidin-2(1H)-one] | 5.6 | 46 |
| CN1Cc2cc(Nc3ncc4c(=N)n(-c5c(Cl)cccc5Cl)c(=O)[nH]c4n3)ccc2C1(C)C [Example 7, 3-(2,6-dichlorophenyl)-4-imino-7-[(1,1,2-trimethyl-2,3-dihydro-1H-isoindol-5-yl)amino]-3,4-dihydropyrimido[4,5-d]pyrimidin-2(1H)-one] | 4.3 | 24 |
